Legend:
inflammation = settings: applied systemically or topically; cited from earlier work
A549 xenografts = test: A549 subcutaneous xenografts, PS V and curcumin; format: in vivo, female nude mice; settings: for inhibition of tumor growth (in words): A549 xenografts, daily treatment to day 36; for reduction in tumor weight: end of study, vs control
Procedure: Polymeric nanoparticles of poly(ε-caprolactone) (11000)-polyethylene glycol (5000) with entrapped curcumin were prepared according to the nanopercipitation-solvent displacement method. […] Then, the mice were inoculated subcutaneously on both flanks with […] cells (2×10^6 each). The treatment was resumed one day after tumor implantation and continued daily until the end of the study.

NF-κB [1] = test: NF-κB activation in orthotopic xenografts by immunohistochemistry; format: in vivo, nude mice; settings: lung tissue of orthotopic A549 xenografts, PS V treatment as in Example 1
Procedure: We evaluated the effect of PS V on the activation of NF-κB, the master regulator of inflammation, in cultured A549 human lung cancer cells as well as in human lung cancer xenografts from the same cells.
We established orthotopic xenografts in nude mice as described in Example 1. Following treatment of the mice with PS V in a similar manner, lung tissue was evaluated by immunohistochemistry, following standard protocols. We used an antibody that assesses activation of NF-κB by phosphorylation (Cell Signaling, Danvers, Mass.). FIG. 10 provides inhibitory effect of PS V on the activation of NF-κB.

[2] = test system: A549 human lung cancer cells; test: A549 subcutaneous xenografts, PS V and erlotinib; format: in vivo, nude mice; settings: by day 14; PS V 80 mg/kg ip, erlotinib 75 mg/kg po, 6 days/week; starting tumor volume subtracted
From the text: TO this end, we inoculated A549 human lung cancer cells subcutaneously into nude mice, following standard protocols.

NF-κB [3] = test: NF-κB activation in cultured cells by Electrophoretic Mobility Shift Assay (EMSA); format: cell-based, human; settings: cultured A549 cells; 1-2× its IC50 concentration for 6 h
[4] = Drug levels in lungs and plasma after inhalation vs oral gavage; format: in vivo, mice
From the text: The oral dose was 23 times higher than the inhalational dose.

human cancer cells = test: Cytotoxicity to human cancer cells; format: cell-based; settings: intact PS V vs its three metabolites
[5] = mouse, in vivo, inhaled or intranasal
Procedure: (§1) After 8 min of inhalation treatment, BALB/c nude mice were euthanized at various time points. Drug levels were analyzed by HPLC in plasma and lung tissues.

[6] = Aerosolization of compounds added to smoking tobacco (filter capture, HPLC); format: physicochemical; settings: lit cigarette, alone or mixed with erlotinib
From the text: We used an experimental system that recapitulates the essential features of the act of smoking (FIG. 8). In this apparatus, smoke from the lit cigarette was drawn through the tubing of the apparatus by external suction. […] The aerosolized test drug was deposited onto this filter. At the conclusion of the study, the filter was removed and the deposited test drug was extracted with acetonitrile and subjected to HPLC analysis, as already described.
FIG. 8. depicts the apparatus for the aerosolization of anticancer compounds. Upper panel: The test compound is added to the cigarette. […] When the system was turned on, the temperature in the heating chamber reached ˜200° C. Heating energy was provided by the battery through a resistance wire inside the heating chamber. Unimpeded flow of the gas phase in the ceramic chamber was allowed by its design; the arrows depict such flow.

lung cancer = settings: pre-clinical models of lung cancer; cited from earlier work
[7] = Pharmacokinetic parameters after inhalational administration (HPLC, lung and plasma); settings: after 8 min inhalation of PS V
Procedure: as §1

SMILES: CCOP(=O)(OCC)OCCCCOC(=O)c1ccccc1OC(C)=O [phospho-aspirin 119, phospho-aspirin]
- effect on inflammation (inflammation): eliminated or greatly reduced inflammation

SMILES: CCOP(=O)(OCC)OCCCCOC(=O)CC1=C(C)/C(=C/c2ccc([S+](C)[O-])cc2)c2ccc(F)cc21 (stereo not drawn) [PS V, phospho-sulindac]
- effect on inflammation (inflammation): eliminated or greatly reduced inflammation
- inhibition of tumor growth (in words) (A549 xenografts): small inhibition of tumor growth
- average tumor volume at the end of the study (A549 xenografts; day 36, PS V 200 mg/kg/d, curcumin 500 mg/kg/d, control 521±76 mm^3): 419±36 mm^3
- reduction in tumor weight (A549 xenografts): 27%
- activation of NF-κB (phosphorylation, immunohistochemistry) (NF-κB [1]): suppresses the activation of NF-κB
- reduced tumor volume compared to controls [2]: 49%
- NF-κB activation (EMSA) (NF-κB [3]): suppressed NF-κB activation
- total drug levels (PS V plus its metabolites) in lungs ([4]; inhalation 6.5 mg/kg compared to oral 150 mg/kg): significantly higher
- level of intact PS V in lungs ([4]; inhalational 6.5 mg/kg body weight): > 20 nmol/g
- level of intact PS V in lungs ([4]; oral 150 mg/kg body weight): < 2 nmol/g
- PS levels in plasma ([4]; plasma): undetectable
- cytotoxicity compared with sulindac, sulindac sulfide XI and sulindac sulfone XII (human cancer cells): more cytotoxic

SMILES: CC1=C(CC(=O)O)c2cc(F)ccc2/C1=C\c1ccc(S(C)(=O)=O)cc1 [Sulindac sulfone XII, sulindac sulfone]
- Cmax [5]: 4.6 nmol/g

SMILES: CCOP(=O)(OCC)OCCCCNC(=O)C(C)c1ccc(CC(C)C)cc1 (stereo not drawn) [phospho-ibuprofen amide IV, phospho-ibuprofen amide]
- aerosolization when added to smoking tobacco [6]: aerosolized successfully

SMILES: COc1cc(/C=C/C(=O)CC(=O)/C=C/c2ccc(O)c(OC)c2)ccc1O [curcumin, reference compound]
- efficacy as a single agent (lung cancer): < 30%
- inhibition of tumor growth (in words) (A549 xenografts): ineffective
- reduction in tumor weight (A549 xenografts): not in the curcumin-treated group

SMILES: C#Cc1cccc(Nc2ncnc3cc(OCCOC)c(OCCOC)cc23)c1 [erlotinib, reference compound]
- reduced tumor volume compared to controls [2]: 74%

SMILES: CC1=C(CC(=O)O)c2cc(F)ccc2/C1=C\c1ccc([S+](C)[O-])cc1 (stereo not drawn) [Sulindac, sulindac]
- Tmax ([7]; lung): 0 h
- Tmax ([7]; plasma): 0 h
